Drawing on ChEMBL document CHEMBL1158933, “A new polyhalogenated monoterpene from the red alga Plocamium cartilagineum” (J Nat Prod, 1990), this text covers MIC, Activity and mortality for four compounds.

Active and inactive are the calls of the source. The rule behind the calls is not given here.

One data set deals with Penicillium oxalicum. Description: Antifungal activity against Penicillium oxalicum CBS 219.30 by bioautographic test. Type of data set: functional.
A further data set has as its system Bacillus subtilis. The experiment in a line: Antibacterial activity against Bacillus subtilis ATCC 6633 up to 24 ug by bioautographic test. The format is functional, organism-based.
Another data set deals with Micrococcus luteus. The experiment in a line: Antibacterial activity against Micrococcus luteus ATCC 9341 up to 24 ug by bioautographic test. The format is functional, organism-based.
A further data set concerns Escherichia coli. The experiment in a line: Antibacterial activity against Escherichia coli ATCC 25922 up to 24 ug by bioautographic test. Type of data set: functional, organism-based.
Data set [1] relates to Biomphalaria glabrata. Description: Molluscicidal activity in Biomphalaria glabrata assessed as mortality at 6 ppm. The format is functional, organism-based.
For another data set, the system named is Artemia salina. The experiment in a line: Toxicity against Artemia salina assessed as mortality. The format is organism-based. As to conditions: in vivo.
The test system of data set [2] is Biomphalaria glabrata. The experiment in a line: Molluscicidal activity in Biomphalaria glabrata assessed as mortality at 5 ppm. Type of data set: functional.
Data set [3] is described as follows: Toxicity against Artemia salina assessed as mortality at 120 ug/ml. Type of data set: organism-based. As to conditions: in vivo, read-out: Activity.
Data set [4] in a line: Toxicity against Artemia salina assessed as mortality at 12 ug/ml. Type of data set: organism-based. The note with it: in vivo, read-out: Activity.
In data set [5] the test system is Biomphalaria glabrata. Description: Molluscicidal activity in Biomphalaria glabrata assessed as mortality at 2.5 ppm. The format is functional.
The nature of data set [6]: Toxicity against Artemia salina assessed as mortality at 100 ug/ml. Type of data set: organism-based. The note with it: in vivo, read-out: Activity.
Data set [7] is described as follows: Toxicity against Artemia salina assessed as mortality at 10 ug/ml. The note with it: in vivo, read-out: Activity. The format is organism-based.

Regarding `C[C@@](Cl)(/C=C/Br)[C@@H](Cl)/C=C/C(Cl)(CCl)CBr` (stereo partly specified), the MIC in the data set on Penicillium oxalicum worked out at 0.1 µg. Moreover, the result in the data set on Bacillus subtilis, in the data set with Micrococcus luteus, with Escherichia coli and in the data set on Biomphalaria glabrata [1] was inactive. Further, the Activity entry in the data set with Artemia salina is “Not Active”.

As to `C[C@]1(Cl)C[C@](C)(/C=C/Cl)[C@H](Br)C[C@@H]1Cl`, the MIC against Penicillium oxalicum came to 0.6 µg. Further, the outcome with Bacillus subtilis, with Micrococcus luteus and with Escherichia coli was inactive. In the data set on Biomphalaria glabrata [2], the Activity came out at 100%. For the same compound, in data set [3], the mortality at 120 ug/ml turned out to be 100%. Further, the mortality at 12 ug/ml in [4] was 26%.

In the data set with Penicillium oxalicum, `C=C(/C=C/[C@@H](Cl)[C@](C)(Cl)/C=C/Br)CCl` (relative stereo) displayed an MIC of 0.1 µg. Further, the result with Bacillus subtilis, in the data set on Micrococcus luteus, in the data set with Escherichia coli and with Biomphalaria glabrata [1] was inactive. In the data set on Artemia salina, the Activity entry is listed as “Not Active”.

In the case of `C[C@]1(Cl)C[C@](C)(Br)[C@@H](/C=C/Cl)C[C@H]1Br`, in the data set on Penicillium oxalicum, the MIC was found to be 10 µg. For the same compound, the outcome with Bacillus subtilis, with Micrococcus luteus and with Escherichia coli was inactive. For the same compound, the Activity with Biomphalaria glabrata [5] is 100%. Further, the mortality at 100 ug/ml in data set [6] was determined as 100%. The mortality at 10 ug/ml in data set [7] was 20%.
